Target: T1, P2X7 receptor (Homo sapiens, UniProt Q99572)
T1 construct: host or cells: SH-SY5Y
T1 sequence (Q99572 1-595): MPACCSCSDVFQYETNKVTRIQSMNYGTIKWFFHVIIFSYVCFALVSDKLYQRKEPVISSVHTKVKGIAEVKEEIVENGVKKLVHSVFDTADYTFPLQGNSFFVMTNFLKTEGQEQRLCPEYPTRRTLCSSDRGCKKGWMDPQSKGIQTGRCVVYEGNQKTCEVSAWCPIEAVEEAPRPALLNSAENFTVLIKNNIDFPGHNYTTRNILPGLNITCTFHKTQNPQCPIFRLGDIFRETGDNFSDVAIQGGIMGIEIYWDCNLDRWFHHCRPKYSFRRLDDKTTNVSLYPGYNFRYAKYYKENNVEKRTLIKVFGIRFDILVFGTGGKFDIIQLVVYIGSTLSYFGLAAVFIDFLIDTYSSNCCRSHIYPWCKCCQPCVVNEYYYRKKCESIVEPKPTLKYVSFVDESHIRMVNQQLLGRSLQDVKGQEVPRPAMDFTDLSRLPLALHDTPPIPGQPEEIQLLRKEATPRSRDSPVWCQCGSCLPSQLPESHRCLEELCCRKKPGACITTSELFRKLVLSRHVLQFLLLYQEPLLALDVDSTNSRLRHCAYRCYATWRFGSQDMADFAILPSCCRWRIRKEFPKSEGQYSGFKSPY
Test: P2X7 calcium mobilization assay, high throughput, antagonist activity (Example 4A)
Type: cell-based
Conditions: not given
Procedure, shortened: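 Dye-loaded cells (100,000/well, seeded previous day) are pre-exposed to compound for an hour at room temperature. Fluorescence maxima are baseline-corrected against no-agonist wells and compared with the averaged agonist-well maximum.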

**Q.** CCOC(=O)c1cn2c(C(=O)NCC(CC(C)C)c3ccccc3)cccc2n1 (stereo not shown) [Compound 128, ethyl 5-[(4-methyl-2-phenyl-pentyl)carbamoyl]imi-dazo[1,2-a]pyridine-2-carboxylate] was tested. Which IC50 did it give?
**A.** < 2000 nM

**Q.** With O=C(NCC12CC3CC(CC(C3)C1)C2)c1cccc2nc(CN(CCO)CCO)cn12 [Compound 136, N-(adamantan-1-ylmethyl)-2-{[bis(2-hydroxyeth-yl)amino]methyl}imi-dazo[1,2-a]pyridine-5-carboxamide] as the compound, how does the IC50 read?
**A.** < 2000 nM

Same assay, conditions: 50% decrease in the fluorescence response of cells exposed to 80 μM 2′(3′)-O-(4-benzoyl-benzoyl)adenosine 5′-triphosphate; Example 4A; read-out: IC50

**Q.** C[C@H]1CNCCN1C(=O)c1cn2c(C(=O)NCC34CC5CC(CC(C5)C3)C4)cccc2n1 [Compound 601, N-(adamantan-1-ylmethyl)-2-{[(2S)-2-methylpiperazin-1-yl]carbonyl}imidazo [1,2-a]pyridine-5-carboxamide] was tested. Which IC50 did it give?
**A.** < 2000 nM

**Q.** Which IC50 does the source give for CCCN(C)C(=O)c1cn2c(C(=O)NC[C@@H]3CC[C@H]4C[C@@H]3C4(C)C)cccc2n1 [Compound 460, 5-N-{[(1S,2R,5S)-6,6-dimethylbicyclo[3.1.1]hept-2-yl]methyl}-2-N-methyl-2-N-propylimidazo[1,2-a]pyridine-2,5-dicarboxamide] here?
**A.** < 2000 nM

**Q.** For CO[C@H]1CCN(C(=O)c2cn3c(C(=O)NC[C@@H]4CC[C@H]5C[C@@H]4C5(C)C)cccc3n2)C1 [Compound 492, N-{[(1S,2R,5S)-6,6-dimethylbicyclo[3.1.1]hept-2-yl]methyl}-2-{[(3S)-3-methoxypyrrolidin-1-yl]carbonyl}imidazo [1,2-a]pyridine-5-carboxamide], which IC50 is on record?
**A.** < 2000 nM

Same assay, conditions: 50% decrease in the fluorescence response of cells exposed to 80 μM of 2′(3′)-O-(4-benzoyl-benzoyl)adenosine 5′-triphosphate; Example 4A; read-out: IC50

**Q.** For NC1CCCN(C(=O)c2cn3c(C(=O)NCC45CC6CC(CC(C6)C4)C5)cccc3n2)C1 (stereo not shown) [Compound 627, N-(adamantan-1-ylmethyl)-2-[(3-aminopiperidin-1-yl)carbonyl]imidazo[1,2-a]pyridine-5-carboxamide], which IC50 is on record?
**A.** < 2000 nM

**Q.** With CC(C)CC(CNC(=O)c1cccc2nc(CC(=O)N3CCCC(N(C)C)C3)cn12)c1ccccc1 (stereo not shown) [Compound 789, 2-{2-[3-(dimethylamino)piperidin-1-yl]-2-oxoethyl}-N-(4-methyl-2-phenylpentyl) imidazo[1,2-a] pyridine-5-carboxamide] as the compound, how does the IC50 read?
**A.** < 2000 nM

**Q.** Which IC50 does the source give for O=C(NCC12CC3CC(CC(C3)C1)C2)c1cccc2nc(C(Cc3ccccc3)C(=O)O)cn12 (stereo not shown) [Compound 755, 2-{5-[(adamantan-1-ylmethyl)carbamoyl]imidazo[1,2-a]pyridin-2-yl}-3-phenylpropanoic acid] here?
**A.** < 2000 nM

**Q.** For N[C@@H]1CCCN(C(=O)Cc2cn3c(NC(=O)CC45CC6CC(CC(C6)C4)C5)cccc3n2)C1 [Compound 771, 2-adamantan-1-yl-N-(2-{2-[(3R)-3-aminopiperidin-1-yl]-2-oxoethyl}imidazo[1,2-a]pyridin-5-yl)acetamide], which IC50 is on record?
**A.** < 2000 nM

**Q.** CC(c1cn2c(C(=O)NCC34CC5CC(CC(C5)C3)C4)cccc2n1)c1nnn[nH]1 (stereo not shown) [Compound 770, N-(adamantan-1-ylmethyl)-2-[1-(1H-tetrazol-5-yl)ethyl]imidazo [1,2-a]pyridine-5-carboxamide] was tested. Which IC50 did it give?
**A.** < 2000 nM

**Q.** Which IC50 does the source give for CC(C)CC(CNC(=O)c1cccc2nc(CC(=O)N3CCSCC3)cn12)c1ccc(Cl)cc1 (stereo not shown) [Compound 798, N-[2-(4-chlorophenyl)-4-methylpentyl]-2-(2-oxo-2-thiomorpholin-4-ylethyl)imidazo[1,2-a] pyridine-5-carboxamide] here?
**A.** < 2000 nM

**Q.** CC(C)N(CCO)C(=O)c1cn2c(C(=O)NCC34CC5CC(CC(C5)C3)C4)cccc2n1 [Compound 697, 5-N-(adamantan-1-ylmethyl)-2-N-(2-hydroxyethyl)-2-N-isopropylimidazo[1,2-a]pyridine-2,5-dicarboxamide] was tested. Which IC50 did it give?
**A.** < 2000 nM

Same assay, conditions: 50% decrease in the fluorescence response of cells exposed to 80 μM of 2′(3′)-O-(4-benzoyl-benzoyl)adenosine 5′-triphosphate; determined as in Example 4A; read-out: IC50

**Q.** For CCCC(CNC(=O)c1cccc2nc(CC(=O)N[C@@H]3CCCNC3)cn12)c1ccc(Cl)cc1 (stereo partly drawn) [Compound 925, N-[2-(4-chlorophenyl)pentyl]-2-{2-oxo-2-[(3R)-piperidin-3-ylamino]ethyl} imidazo [1,2-a]pyridine-5-carboxamide], which IC50 is on record?
**A.** < 2000 nM

**Q.** With N[C@@H]1CCCN(C(=O)Cc2cn3c(C(=O)NCC4(c5cccnc5)CCCCC4)cccc3n2)C1 [Compound 947, 2-{2-[(3R)-3-aminopiperidin-1-yl]-2-oxoethyl}-N-[(1-pyridin-3-ylcyclohexyl)methyl] imidazo[1,2-a] pyridine-5-carboxamide] as the compound, how does the IC50 read?
**A.** < 2000 nM

**Q.** For CCOC(=O)Cc1cn2c(C(=O)NCC3(c4ccc(Cl)cc4)CCCCC3)cccc2n1 [Compound 914, ethyl [5-({[1-(4-chlorophenyl)cyclohexyl]methyl}carbamoyl)imidazo[1,2-a]pyridin-2-yl] acetate], which IC50 is on record?
**A.** < 2000 nM

**Q.** For O=C(Cc1cn2c(C(=O)NCC3(c4ccc(C(F)(F)F)cc4)CCCCC3)cccc2n1)NCC1CC1 [Compound 860, 2-{2-[(cyclopropylmethyl)amino]-2-oxoethyl}-N-({1-[4-(trifluoromethyl)phenyl]cyclohexyl}methyl) imidazo[1,2-a] pyridine-5-carboxamide], which IC50 is on record?
**A.** < 2000 nM

**Q.** For Cc1ccc(C2(CNC(=O)c3cccc4nc(CC(=O)N5CCC[C@@H](N)C5)cn34)CCCCC2)cn1 [Compound 948, 2-{2-[(3R)-3-amino-piperidin-1-yl]-2-oxoethyl}-N-{[1-(6-methylpyridin-3-yl)cyclohexyl]methyl} imidazo[1,2-a] pyridine-5-carboxamide], which IC50 is on record?
**A.** < 2000 nM

**Q.** CC(C)(C)OC(=O)N1CC[C@@H](NC(=O)Cc2cn3c(C(=O)NCC4(c5ccc(Cl)cc5)CCCCC4)cccc3n2)C1 [Compound 968, tert-butyl (3R)-3-({[5-({[1-(4-chlorophenyl)cyclohexyl]methyl}carbamoyl)imidazo[1,2-a]pyridin-2-yl]acetyl}amino) pyrrolidine-1-carboxylate] was tested. Which IC50 did it give?
**A.** < 2000 nM

**Q.** How did the IC50 turn out when NC(=O)c1cccc(NC(=O)Cc2cn3c(C(=O)NCC4CCCCCC4)cccc3n2)c1 [Compound 955, 2-{2-[(3-carbamoylphenyl)amino]-2-oxoethyl}-N-(cycloheptylmethyl) imidazo[1,2-a] pyridine-5-carboxamide] was run?
**A.** < 2000 nM

Same assay, conditions: SH-SY5Y cells; 50% decrease in fluorescence response to 80 μM BzATP; read-out: IC50

**Q.** With O=C(NCC12CC3CC(CC(C3)C1)C2)c1cccc2nc(CN3CCCC(O)C3)cn12 (stereo not shown) [Compound 135, N-(adamantan-1-ylmethyl)-2-[(3-hydroxypiperidin-1-yl)methyl]imidazo[1,2-a]pyridine-5-carboxamide] as the compound, how does the IC50 read?
**A.** < 2000 nM

**Q.** How did the IC50 turn out when O=C(NCC12CC3CC(CC(C3)C1)C2)c1cccc2nc(CN3CCNCC3)cn12 [Compound 5, N-(adamantan-1-ylmethyl)-2-(piperazin-1-ylmethyl)imidazo[1,2-a]pyridine-5-carboxamide] was run?
**A.** < 2000 nM

**Q.** With NC1CCN(CCc2cn3c(C(=O)NCC45CC6CC(CC(C6)C4)C5)cccc3n2)CC1 [Compound 117, 2-[2-(4-amino-piperidin-1-yl)-ethyl]-imidazo[1,2-a]pyridine-5-carboxylic acid (adamantan-1-ylmethyl)-amide] as the compound, how does the IC50 read?
**A.** < 2000 nM

**Q.** How did the IC50 turn out when CN(CCO)C(=O)c1cn2c(C(=O)NCC34CC5CC(CC(C5)C3)C4)cccc2n1 [Compound 9, 5-N-(adamantan-1-ylmethyl)--(2-hydroxyethyl)-- methylimidazo[1,2-a]pyridine-2,5-dicarboxamide] was run?
**A.** < 2000 nM

**Q.** For O=C(NCC12CC3CC(CC(C3)C1)C2)c1cccc2nc(C(=O)N3CCCC(O)C3)cn12 (stereo not shown) [Compound 105, N-(adamantan-1-ylmethyl)-2-[(3-hydroxypiperidin-1-yl)carbonyl]imidazo[1,2-a]pyridine-5-carboxamide], which IC50 is on record?
**A.** < 2000 nM

**Q.** How did the IC50 turn out when CCOC(=O)Cc1nc2cccc(C(=O)NCC34CC5CC(CC(C5)C3)C4)n2c1Cl [Compound 61, {5-[(Adamantan-1-ylmethyl)-carbamoyl]-3-chloro-imidazo[1,2-a]pyridin-2-yl}-acetic acid ethyl ester] was run?
**A.** < 2000 nM

Same assay, conditions: fluorescence response of cells exposed to 80 μM 2′(3′)-O-(4-benzoyl-benzoyl)adenosine 5′-triphosphate; Example 4A; read-out: IC50

**Q.** Which IC50 does the source give for CC1(C)[C@H]2CC[C@@H](CNC(=O)c3cccc4nc(C(=O)N5CCOC(CN)C5)cn34)[C@@H]1C2 (stereo partly drawn) [Compound 336, 2-{[2-(aminomethyl)morpholin-4-yl]carbonyl}-N-{[(1S,2R,5S)-6,6-dimethylbicyclo[3.1.1]hept-2-yl]methyl}imidazo[1,2-a]pyridine-5-carboxamide] here?
**A.** < 2000 nM

**Q.** O=C(CC12CC3CC(CC(C3)C1)C2)Nc1cccc2nc(C(=O)N3CCC(C(F)(F)F)CC3)cn12 [Compound 382, 2-adamantan-1-yl-N-(2-{[4-(trifluoromethyl)piperidin-1-yl]carbonyl}imidazo[1,2-a]pyridin-5-yl)acetamide] was tested. Which IC50 did it give?
**A.** < 2000 nM

**Q.** How did the IC50 turn out when CC(C)CC(CNC(=O)c1cccc2nc(CC(=O)NCC3CC3)cn12)c1ccccc1 (stereo not shown) [Compound 222, 2-{2-[(cyclopropylmethyl)amino]-2-oxoethyl}-N-(4-methyl-2-phenylpentyl) imidazo [1,2-a]pyridine-5-carboxamide] was run?
**A.** < 2000 nM

From patent US8431593B2, “Heteroaryl amide derivatives” (H. Lundbeck A/S, priority 2006, dated 2013)
